{"source": "patent US11701355B2", "about": "“Levosimendan for treating pulmonary hypertension with heart failure with preserved ejection fraction (PH-HFpEF)” (Tenax Therapeutics, Inc., priority 2019, dated 2023)", "origin": "cited, not measured here", "key": {"[1]": {"test_system": "phosphodiesterase-3 (PDE3)", "conditions": "in vitro; cited from earlier work"}, "PDE4": {"test_system": "PDE4", "conditions": "in vitro; cited from earlier work"}, "[2]": {"test_system": "whole cardiomyocytes and isolated contractile apparatus preparations", "conditions": "cited from earlier work"}, "[3]": {"conditions": "heart failure subjects; cited from earlier work"}, "patients with PH-HFpEF": {"test_system": "patients with PH-HFpEF", "conditions": "in vivo; cited from earlier work"}, "[4]": {"test_system": "patients with left heart disease", "conditions": "in vivo; cited from earlier work"}, "PH-HFpEF patients [5]": {"test_system": "PH-HFpEF patients", "conditions": "acute; cited from earlier work"}, "PH-HFpEF patients [6]": {"test_system": "PH-HFpEF patients", "conditions": "after 12 weeks, 52 patients; cited from earlier work"}, "patients with HFpEF": {"test_system": "patients with HFpEF", "conditions": "long term treatment, 216 patients; cited from earlier work"}, "HFpEF patients [7]": {"test_system": "HFpEF patients", "conditions": "inhaled 3 times a day for 4 weeks; cited from earlier work"}, "HFpEF patients [8]": {"test_system": "HFpEF patients", "conditions": "in vivo; cited from earlier work"}, "HFpEF patients [9]": {"test_system": "HFpEF patients", "conditions": "in vivo; cited from earlier work", "remark": "listed apart in the source"}}, "data": [{"molecule": "CC(=O)Nc1ccc(C2=NNC(=O)C[C@H]2C)cc1", "note": "[OR-1896, (R)-N-(4-(4-methyl-6-oxo-1,4,5,6-tetrahydropyridazin-3-yl)phenyl) acetamide]", "values": [{"measurement": "potency in the inhibition of PDE3 compared with levosimendan", "setting": "[1]", "result": "profoundly less potent"}, {"measurement": "potency in the inhibition of PDE4 compared with levosimendan", "setting": "PDE4", "result": "profoundly less potent"}, {"measurement": "inotropic effects compared with levosimendan", "setting": "[2]", "result": "equipotent to levosimendan"}, {"measurement": "half-life", "setting": "[3]", "result": "70 to 80", "unit": "h"}]}, {"molecule": "COc1ccccc1Oc1c(NS(=O)(=O)c2ccc(C(C)(C)C)cc2)nc(-c2ncccn2)nc1OCCO", "note": "[bosentan]", "values": [{"measurement": "clinical outcomes compared with placebo", "setting": "patients with PH-HFpEF", "result": "worse clinical outcomes"}, {"measurement": "six minute walk test or echocardiographic evaluation of pulmonary hypertension", "setting": "patients with PH-HFpEF", "result": "no improvements"}]}, {"molecule": "CCCNS(=O)(=O)Nc1ncnc(OCCOc2ncc(Br)cn2)c1-c1ccc(Br)cc1", "note": "[macitentan]", "values": [{"measurement": "hemodynamic parameters (pulmonary vascular resistance, mean pulmonary arterial pressure, pulmonary artery wedge pressure)", "setting": "[4]", "result": "no change"}]}, {"molecule": "COC(=O)N(C)c1c(N)nc(-c2nn(Cc3ccccc3F)c3ncccc23)nc1N", "note": "[riociguat]", "values": [{"measurement": "TPG or pulmonary vascular resistance", "setting": "PH-HFpEF patients [5]", "result": "no change"}, {"measurement": "primary outcome, mean pulmonary arterial pressure", "setting": "PH-HFpEF patients [5]", "result": "not achieved"}]}, {"molecule": "CCCc1nn(C)c2c(=O)[nH]c(-c3cc(S(=O)(=O)N4CCN(C)CC4)ccc3OCC)nc12", "note": "[sildenafil]", "values": [{"measurement": "mPAP", "setting": "PH-HFpEF patients [6]", "result": "no change"}, {"measurement": "six-minute walk time, clinical status, or quality of life", "setting": "patients with HFpEF", "result": "failed to improve"}]}, {"molecule": "O=NO", "note": "[sodium nitrite]", "values": [{"measurement": "primary endpoint of peak oxygen consumption during cardiopulmonary exercise; secondary endpoints", "setting": "HFpEF patients [7]", "result": "unable to demonstrate any improvement"}]}, {"molecule": "COC(=O)Nc1c(N)nc(-c2nn(Cc3ccccc3F)c3ncc(F)cc23)nc1N", "note": "[vericiguat]", "values": [{"measurement": "primary endpoints", "setting": "HFpEF patients [8]", "result": "no significant changes"}]}, {"molecule": "sacubitril/valsartan", "values": [{"measurement": "reduction in the primary endpoint", "setting": "HFpEF patients [9]", "result": "not statistically significant"}]}]}
